From patent publication US4791200A, “2-substituted-4-aryl-substituted thiazoles” (Ortho Pharmaceutical Corporation, priority 1987, dated 1988)
Read-outs that look alike come from different tables or passages of the source.

How the values were obtained:
parietal cells = test: Isolated Parietal Cell Assay (14C-aminopyrine accumulation, histamine or dibutyryl cAMP stimulated); type: cell-based, rabbit; conditions: Oryctolagus cuniculus
Description: The isolated parietal cell assay was conducted using the procedures of Batzri, S. et al., Biochemica et Biophysica Acta 508, 328 (1978) and Soll, A. H. Am. J. Physiol. 238, G366 (1980). Basically, parietal cells were isolated from the fundic mucosa of rabbit stomachs by a four-stage collagenase digestion process. The supernatant fractions from the last two stages of this process contain the individual parietal cells. This cell suspension was centrifuged and reconstituted in a modified Hank's buffer to contain 1-2×10^6 cells/ml. […] This accumulation was stimulated by histamine and was blocked by H2 antagonists. The cells were incubated with 0.4-0.5×10^6 cpm ^14 C-AP, with various concentrations of histamine as a stimulant, 1×10^-5 M isobutylmethylxanthine, and the test compound added in a 20 μl volume of buffer or DMSO. The flasks were incubated in a shaking water bath at 37° C. for 20 minutes. Two aliquots were then taken from each flask and cell pellets were collected by centrifugation. The pellets were solubilized with Protosol (New England Nuclear) and radioactivity determined by liquid scintillation spectrometry. Data is presented as the IC50 vhist, the concentration of compound required to inhibit ^14 C-AP accumulation in the histamine stimulated parietal cell by 50%.
When dibutyryl cAMP was used to stimulate the cells instead of histamine, a similar inhibition of ^14 C-AP accumulation was measured and the data are presented as the IC50 vcAMP, the concentration required to inhibit ^14 C-AP accumulation in the cAMP stimulated parietal cell by 50%.

[1] = biological target: T1, parietal cell H^+ K^+ ATPase (Oryctolagus cuniculus, UniProt P27112); test: Inhibition of Parietal Cell H^+ K^+ ATPase; type: biochemical, New Zealand white rabbits; conditions: read-out: % Inhibition at Concentration; for inhibition at 100 µM: at 10^-4 M
T1 construct: determined in fundic mucosa from New Zealand white rabbits which were homogenized; from tissue; host or cells: fundic mucosa of New Zealand white rabbits, homogenized; membrane protein
T1 sequence (P27112 2-1035 limits assumed): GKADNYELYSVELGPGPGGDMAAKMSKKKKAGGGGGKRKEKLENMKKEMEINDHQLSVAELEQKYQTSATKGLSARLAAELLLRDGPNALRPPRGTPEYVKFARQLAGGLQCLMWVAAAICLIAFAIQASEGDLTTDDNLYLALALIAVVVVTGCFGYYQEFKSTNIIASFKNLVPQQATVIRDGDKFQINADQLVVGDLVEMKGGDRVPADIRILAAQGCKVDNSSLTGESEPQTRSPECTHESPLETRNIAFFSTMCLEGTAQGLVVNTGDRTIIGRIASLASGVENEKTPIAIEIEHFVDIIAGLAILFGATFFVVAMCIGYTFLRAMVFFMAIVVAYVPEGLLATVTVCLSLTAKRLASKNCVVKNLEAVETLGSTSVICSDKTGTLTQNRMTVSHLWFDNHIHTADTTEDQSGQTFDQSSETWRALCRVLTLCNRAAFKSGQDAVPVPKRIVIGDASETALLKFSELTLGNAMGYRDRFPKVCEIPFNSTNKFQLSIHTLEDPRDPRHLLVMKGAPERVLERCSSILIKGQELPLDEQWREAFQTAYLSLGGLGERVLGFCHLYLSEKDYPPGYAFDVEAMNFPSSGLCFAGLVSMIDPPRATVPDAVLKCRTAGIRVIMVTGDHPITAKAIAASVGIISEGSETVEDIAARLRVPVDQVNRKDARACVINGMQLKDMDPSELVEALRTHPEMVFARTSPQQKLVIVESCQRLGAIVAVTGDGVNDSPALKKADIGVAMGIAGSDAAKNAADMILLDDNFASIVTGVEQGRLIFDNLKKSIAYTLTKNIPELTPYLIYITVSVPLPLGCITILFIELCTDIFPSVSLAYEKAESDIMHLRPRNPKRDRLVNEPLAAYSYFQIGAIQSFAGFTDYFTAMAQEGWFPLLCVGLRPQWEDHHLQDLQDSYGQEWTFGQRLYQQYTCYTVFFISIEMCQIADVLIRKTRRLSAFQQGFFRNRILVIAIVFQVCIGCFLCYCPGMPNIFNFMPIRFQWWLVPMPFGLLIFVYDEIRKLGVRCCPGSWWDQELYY
T1 sequence (P18597 whole entry partner): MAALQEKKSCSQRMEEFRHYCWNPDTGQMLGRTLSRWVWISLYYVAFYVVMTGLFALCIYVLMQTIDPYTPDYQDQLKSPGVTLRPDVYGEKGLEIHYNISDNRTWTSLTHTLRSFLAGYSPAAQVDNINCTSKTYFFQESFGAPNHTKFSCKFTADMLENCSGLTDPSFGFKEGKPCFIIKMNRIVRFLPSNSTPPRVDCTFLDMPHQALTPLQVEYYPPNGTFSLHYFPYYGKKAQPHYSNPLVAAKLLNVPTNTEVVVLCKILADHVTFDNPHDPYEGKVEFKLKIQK
Description: The activity was measured in a 1 ml incubation volume containing 50 mM Tris pH 7.4, 2 mM MgCl2, 2 mM Na2 ATP, with or without 20 mM KCl and vehicle control (dimethylsulfoxide) or test compound added in a 0.02 ml volume. Typically, 20-50 μg membrane protein was added and the tubes were preincubated with test compound for 10 minutes at 37° C. Substrate, Na2 ATP, was then added and the tubes were incubated for another 15 minutes at 37° C. The reaction was stopped by the addition of 1 ml 14% trichloroacetic acid and the samples were centrifuged at 2,000 ×g for 10 minutes. The amount of inorganic phosphate present in an aliquot of supernatant was determined. H^+ K^+ ATPase activity was determined after correcting for the basal (Mg^++ only) enzyme activity present in the membrane preparation.

[2] = tested on: acid output (gastric secretion); test: Gastric Secretion (pylorus ligation, modified Shay); type: in vivo, male Charles River Sprague Dawley derived rats; conditions: i.d. or s.c., 4 hours after ligation; for response vs control in vivo at 40 mg/kg: at 40 mpK
Description: The inhibitory activity of the compounds on acid output was tested using pylorus ligation in a modification of the procedure of Shay, H. et al., Gastroenterology 26, 906 (1954). Basically, male Charles River Sprague Dawley derived rats weighing 150-300 grams were deprived of food but not water for 18-24 hours prior to use. Water was withheld during the experiment, however. The rats were weighed, anesthetized with ether and the pylorus ligated according to the method of Shay et al., supra. Treatment or vehicle control was then administered intraduodenally (i.d.) or subcutaneously (s.c.). Rats were housed two/cage and sacrificed with CO2 four hours after ligation. The stomachs were removed, rinsed, and contents emptied into a graduated centrifuge tube. The tubes were centrifuged, the volume of gastric juice recorded, and any samples obviously contaminated by feces, food or blood were eliminated. A 1 ml aliquot of gastric juice was titrated with 0.1N NaOH to a pH of 7.0-7.4. The volume of gastric juice secreted, the acid concentration, and the product of the volume times the concentration, i.e., the total amount of acid secreted, were measured.

[3] = 20 min, histamine stimulated, 37° C., 20 minutes, read-out: IC50 vhist (inhibition of 14C-AP accumulation in the histamine stimulated parietal cell)
[4] = dibutyryl cAMP stimulated, read-out: IC50 vcAMP (inhibition of 14C-AP accumulation in the cAMP stimulated parietal cell)
[5] = Rattus norvegicus, read-out: % Acid Secreted at mpK

SMILES	IC50 (parietal cells; [3]) [nM]	IC50 (parietal cells; [4]) [nM]	inhibition at 18 µM ([1]; at 18 μM) [%]	response vs control in vivo at 5 mg/kg ([2]; Rattus norvegicus, at 5 mpK, read-out: % Acid Secreted at mpK) [%]	response vs control in vivo at 5.7 mg/kg ([2]; Rattus norvegicus, at 5.7 mpK, read-out: % Acid Secreted at mpK) [%]	% Acid Secreted at mpK ([2]; at 10 mpK) [%]	% Acid Secreted at mpK ([2]; at 20 mpK) [%]	inhibition at 100 µM [1] [%]	inhibition at 44 µM ([1]; at 44 μM) [%]	response vs control in vivo at 40 mg/kg [2, 5] [%]
c1ccc(-c2nc(-c3ccc(OCCCn4ccnc4)cc3)cs2)cc1 [Example 10, 4-[4-(1H-Imidazol-1-yl)propoxyphenyl]-2-phenylthiazole]	80	20	50	33	50	78	91			
CN(CCCOc1ccc(-c2csc(-c3ccccc3)n2)cc1)Cc1ccccc1 [Example 11, 4-(4-Benzylmethylaminopropoxyphenyl)-2-phenylthiazole]	370	210					48	39		
CN1CCN(CCCOc2ccc(-c3csc(-c4ccccc4)n3)cc2)CC1 [Example 6, 4-[4-(4-Methylpiperazol-1-yl)propoxyphenyl]-2-phenylthiazole]	180	120							50	18
CCCCN(CCCC)CCCCOc1ccc(-c2csc(-c3ccccc3)n2)cc1 [Example 13]	130	120					56	64		90
